System: antibody 2D12.5
Experiment: competitive immunoassay (ELISA) of metal-DOTA complexes against immobilized Y-DOTA
Format: binding, murine
Conditions: 37° C.; DOTA analog [S]-2-(p-nitrobenzyl)-DOTA
Excerpt: FIG. 13 is graphical display showing the relative binding of metal-DOTA complexes to antibody 2D12.5. A representative set of competitive binding curves obtained from ELISA experiments described in Example 3 below. Error bars (representing the standard error of the mean) are shown, but are generally smaller than the data points.
Elements plotted in the order Sc (open circle), Lu, Yb, Tm, Er, Ho, Y (open diamond), Dy, Tb, Gd, Eu, Sm, Nd, Pr, Ce, La. ΔΔG values relative to Y-DOTA, set at 0. Error bars represent standard error of the mean.
To determine the metal selectivity of the antibody 2D12.5, a competitive immunoassays was used to measure the binding constants of multiple metal-DOTA complexes relative to Y^3+-DOTA.
We examined the monoclonal antibody 2D12.5, initially developed to bind specifically to Y-DOTA for targeted radiotherapy (see, e.g., Goodwin et al., i Cancer Res. 54: 5937-5946 (1994)), in order to determine the scope of its activity. To assess the metal selectivity of antibody 2D12.5, a competitive immunoassay to measure the binding constants of various metal-DOTA complexes relative to the original Y^3+ complex was developed (FIG. 12). Briefly, 2D12.5 was incubated at 37° C. in the presence of immobilized Y-DOTA and a soluble metal-DOTA competitor. […] Binding was measured by standard methods known to those of skill in the art. […]

O=C([O-])CN1CCN(CC(=O)[O-])CCN(CC(=O)[O-])C(Cc2ccc([N+](=O)[O-])cc2)CN(CC(=O)[O-])CC1.[Tb+3] (stereo not shown) [Tb-DOTA]
binding strength relative to the original Y^3+ complex (in words): strongest binders

Reference: patent US7528235B2, “Multi-functional antibodies” (The Regents of the Univarsity of California, priority 2003, dated 2009)
